Like-named read-outs stand apart in the source and are kept apart here.
Experiments:
[1] = target: human SOS1 (nucleotide exchange of K-Ras^G12C) (Homo sapiens, UniProt Q07889); assay: Biochemical assay 2: K-Ras^G12C activation assay by hSOS1 at high GTP concentration (HTRF); details: for inhibition at 20 µM: read-out: Assay 2 (KRAS-Activation by SOS high GTP) activity expressed as % inhibition at 20 μM
[2] = target: Epidermal Growth Factor Receptor (EGFR) (Homo sapiens (Human), UniProt P00533); assay: EGFR kinase assay (TR-FRET); type: biochemical
Sequence of Epidermal Growth Factor Receptor (EGFR) (P00533 25-1210): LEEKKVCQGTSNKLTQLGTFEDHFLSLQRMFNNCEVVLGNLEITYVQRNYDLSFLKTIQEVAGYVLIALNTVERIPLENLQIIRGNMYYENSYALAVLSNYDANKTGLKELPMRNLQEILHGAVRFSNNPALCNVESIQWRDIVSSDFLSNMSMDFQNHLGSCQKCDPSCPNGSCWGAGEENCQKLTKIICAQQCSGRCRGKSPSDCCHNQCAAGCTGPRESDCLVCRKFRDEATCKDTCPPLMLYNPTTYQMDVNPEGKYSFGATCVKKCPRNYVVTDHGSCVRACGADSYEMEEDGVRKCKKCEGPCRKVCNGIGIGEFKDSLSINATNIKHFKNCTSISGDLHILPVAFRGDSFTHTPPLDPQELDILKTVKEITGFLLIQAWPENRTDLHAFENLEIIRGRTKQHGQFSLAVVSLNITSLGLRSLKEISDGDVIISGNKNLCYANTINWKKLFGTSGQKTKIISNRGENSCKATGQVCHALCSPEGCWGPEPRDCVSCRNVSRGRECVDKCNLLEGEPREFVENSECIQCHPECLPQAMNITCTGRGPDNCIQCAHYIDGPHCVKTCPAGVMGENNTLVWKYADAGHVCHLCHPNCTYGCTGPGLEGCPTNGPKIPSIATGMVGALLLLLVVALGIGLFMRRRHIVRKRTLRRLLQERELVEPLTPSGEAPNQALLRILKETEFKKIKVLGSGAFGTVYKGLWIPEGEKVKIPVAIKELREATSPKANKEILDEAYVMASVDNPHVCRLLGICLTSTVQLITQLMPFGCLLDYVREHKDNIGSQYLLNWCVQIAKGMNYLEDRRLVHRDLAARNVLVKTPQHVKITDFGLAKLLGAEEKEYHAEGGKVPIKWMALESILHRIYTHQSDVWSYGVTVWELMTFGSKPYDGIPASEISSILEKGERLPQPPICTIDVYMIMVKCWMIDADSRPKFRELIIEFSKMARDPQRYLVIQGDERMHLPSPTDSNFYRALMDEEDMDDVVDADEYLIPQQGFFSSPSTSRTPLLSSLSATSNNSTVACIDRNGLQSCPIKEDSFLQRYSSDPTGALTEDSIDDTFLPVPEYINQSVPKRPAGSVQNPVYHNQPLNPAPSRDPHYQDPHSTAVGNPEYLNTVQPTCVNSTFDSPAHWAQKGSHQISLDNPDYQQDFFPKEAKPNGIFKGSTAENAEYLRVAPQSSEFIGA
From the text: EGFR inhibitory activity of compounds of the present invention was quantified employing the TR-FRET based EGFR assay as described in the following paragraphs.
Epidermal Growth Factor Receptor (EGFR) affinity purified from human carcinoma A431 cells (Sigma-Aldrich, #E3641) was used as kinase. As substrate for the kinase reaction the biotinylated peptide biotin-Ahx-[…] (SEQ ID NO 5) (C-terminus in amid form) was used which can be purchased e.g. form the company Biosyntan GmbH (Berlin-Buch, Germany).
For the assay 50 nL of a 100 fold concentrated solution of the test compound in DMSO was pipetted into a black low volume 384 well microtiter plate (Greiner Bio-One, Frickenhausen, Germany), 2 μL of a solution of EGFR in aqueous assay buffer [50 mM Hepes/HCl pH 7.0, 1 mM MgCl2, 5 mM MnCl2, 0.5 mM activated sodium ortho-vanadate, 0.005% (v/v) Tween-20]were added and the mixture was incubated for 15 min at 22° C. to allow pre-binding of the test compounds to the enzyme before the start of the kinase reaction. […] The concentration of EGFR was adjusted depending of the activity of the enzyme lot and was chosen appropriate to have the assay in the linear range, typical concentration were about 3 U/ml. The reaction was stopped by the addition of 5 μl of a solution of HTRF detection reagents (0.1 μM streptavidine-XL665 [Cis Biointernational] and 1 nM PT66-Tb-Cryptate, an terbium-cryptate labelled anti-phospho-tyrosine antibody from Cis Biointernational [instead of the PT66-Tb-cryptate PT66-Eu-Chelate from Perkin Elmer can also be used]) in an aqueous EDTA-solution (80 mM EDTA, 0.2% (w/v) bovine serum albumin in 50 mM HEPES pH 7.5).
The resulting mixture was incubated 1 h at 22° C. to allow the binding of the biotinylated phosphorylated peptide to the streptavidine-XL665 and the PT66-Eu-Chelate. Subsequently the amount of phosphorylated substrate was evaluated by measurement of the resonance energy transfer from the PT66-Tb-Cryptate to the streptavidine-XL665. Therefore, the fluorescence emissions at 620 nm and 665 nm after excitation at 337 nm were measured in a HTRF reader, e.g. a Pherastar (BMG Labtechnologies, Offenburg, Germany) or a Viewlux (Perkin-Elmer). The ratio of the emissions at 665 nm and at […] was taken as the measure for the amount of phosphorylated substrate.

[3] = E-notation values, unit inferred, 50 μM GTP, read-out: Assay 2 (KRAS-Activation, high GTP) IC50
[4] = E-notation values, unit inferred, read-out: EGFR-assay IC50
[5] = values given in μM, read-out: EGFR kinase inhibition IC50
[6] = high GTP, read-out: Assay 2 (KRAS-Activation by SOS high GTP) activity expressed as IC50
[7] = in μM, read-out: EGFR-assay IC50

Structure (SMILES) | IC50 [1, 3] | inhibition at 20 µM ([1]; high GTP) | IC50 [2, 5] | IC50 [2, 7] | also measured
COc1cc2nc(C)nc(NC(C)c3ccc(-c4ccccc4CN(C)C)s3)c2cc1OC (single isomer, unassigned) [Example 390, N-[1-(5-{2-[(dimethylamino)methyl]phenyl}thiophen-2-yl)ethyl]-6,7-dimethoxy-2-methylquinazolin-4-amine] | 6.25 µM |  |  |  | IC50 [2, 4]: > 20 µM
COc1cc2nc(C)nc(NC(C)c3ccc(-c4ccccc4CN(C)C)s3)c2cc1OC (single isomer, unassigned) [Example 391, N-[1-(5-{2-[(dimethylamino)methyl]phenyl}thiophen-2-yl)ethyl]-6,7-dimethoxy-2-methylquinazolin-4-amine] | 0.0367 µM |  |  |  | IC50 [2, 4]: > 20 µM
COc1cc2nc(C)nc(NC(C)c3ccc(=O)[nH]c3)c2cc1OC (single isomer, unassigned; enantiomer 1) [Example 227, 5-{1-[(6,7-dimethoxy-2-methylquinazolin-4-yl)amino]ethyl}pyridin-2(1H)-one, Enantiomer 1] |  | 24% | > 20 µM |  | 
COc1cc2nc(C)nc(NC(C)c3c(C)ccc4[nH]ncc34)c2cc1OC (stereo not shown) [Example 7, 6,7-dimethoxy-2-methyl-N-[1-(5-methyl-1H-indazol-4-yl)ethyl]quinazolin-4-amine] |  | 18% | > 20 µM |  | 
COc1cc2nc(C)nc(NC(C)c3ccc(-n4ccc(CCO)n4)o3)c2cc1OC (stereo not shown) [Example 226, 2-[1-(5-{1-[(6,7-dimethoxy-2-methylquinazolin-4-yl)amino]ethyl}furan-2-yl)-1H-pyrazol-3-yl]ethanol] |  | 37% | > 20 µM |  | 
COc1cc2nc(C)nc(NC(C)c3ccc(C4=CCCC4)s3)c2cc1OC (stereo not shown) [Example 231, N-{1-[5-(cyclopent-1-en-1-yl)thiophen-2-yl]ethyl}-6,7-dimethoxy-2-methylquinazolin-4-amine] |  | 53% | > 20 µM |  | 
COc1cc2nc(C)nc(NC(C)c3ccc(-c4ccc(CNC(=O)OC(C)(C)C)o4)s3)c2cc1OC (stereo not shown) [Example 236, tert-butyl {[5-(5-{1-[(6,7-dimethoxy-2-methylquinazolin-4-yl)amino]ethyl}thiophen-2-yl)furan-2-yl]methyl}carbamate] |  |  | > 20 µM |  | IC50 [1, 6]: 3.82 µM
COC(=O)c1cc(-c2ccc(C(C)Nc3nc(C)nc4cc(OC)c(OC)cc34)s2)nn1C (stereo not shown) [Example 237, methyl 3-(5-{1-[(6,7-dimethoxy-2-methylquinazolin-4-yl)amino]ethyl}thiophen-2-yl)-1-methyl-1H-pyrazole-5-carboxylate] |  | 32% | > 20 µM |  | 
COc1cc2nc(C)nc(NC(C)c3ccc(-c4ccc(F)cc4CNC(=O)c4cc5ccccc5[nH]4)s3)c2cc1OC (stereo not shown) [Example 296, N-[2-(5-{1-[(6,7-dimethoxy-2-methylquinazolin-4-yl)amino]ethyl}thiophen-2-yl)-5-fluorobenzyl]-1H-indole-2-carboxamide] |  | 48% | > 20 µM |  | 
COc1cc2nc(C)nc(NC(C)c3ccc(-c4ccccc4CN4CCN(C(=O)OC(C)(C)C)CC4)s3)c2cc1OC (stereo not shown) [Example 306, tert-butyl 4-[2-(5-{1-[(6,7-dimethoxy-2-methylquinazolin-4-yl)amino]ethyl}thiophen-2-yl)benzyl]piperazine-1-carboxylate] |  |  | > 20 µM |  | IC50 [1, 6]: 4.2 µM
COc1cc2nc(C)nc(NC(C)c3ccc(-c4ccccc4CNc4ccccc4)s3)c2cc1OC (stereo not shown) [Example 362, 6,7-dimethoxy-2-methyl-N-[1-(5-{2-[(phenylamino)methyl]phenyl}thiophen-2-yl)ethyl]quinazolin-4-amine] |  | 27% | > 20 µM |  | 
COCCNCc1ccccc1-c1ccc(C(C)Nc2nc(C)nc3cc(OC)c(OC)cc23)s1 (stereo not shown) [Example 369, 6,7-dimethoxy-N-{1-[5-(2-{[(2-methoxyethyl)amino]methyl}phenyl)thiophen-2-yl]ethyl}-2-methylquinazolin-4-amine] | 0.152 µM |  |  | > 20 µM | 
COc1cc2nc(C)nc(NC(C)c3ccc(-c4ccccc4CNC4CC4)s3)c2cc1OC (stereo not shown) [Example 370, N-[1-(5-{2-[(cyclopropylamino)methyl]phenyl}thiophen-2-yl)ethyl]-6,7-dimethoxy-2-methylquinazolin-4-amine] | 0.352 µM |  |  | > 20 µM | 
COC(=O)c1ccc2nc(C)nc(N[C@H](C)c3cccc(Cl)c3)c2c1 [Example 371, methyl 4-{[(1R)-1-(3-chlorophenyl)ethyl]amino}-2-methylquinazoline-6-carboxylate] | 2.42 µM |  |  | > 20 µM | 
Cc1nc(N[C@H](C)c2cccc(Cl)c2)c2cc(CO)ccc2n1 [Example 373, (4-{[(1R)-1-(3-chlorophenyl)ethyl]amino}-2-methylquinazolin-6-yl)methanol] | 6.2 µM |  |  | > 20 µM | 
COc1cc2nc(C)nc(NC(C)c3ccc(-c4ccccc4C(O)c4ccccc4)s3)c2cc1OC (stereo not shown) [Example 374, [2-(5-{1-[(6,7-dimethoxy-2-methylquinazolin-4-yl)amino]ethyl}thiophen-2-yl)-phenyl](phenyl)methanol] | 2.55 µM |  |  | > 20 µM | 
COc1cc2nc(C)nc(NC(C)c3ccc(-c4ccccc4C(O)Cc4ccccc4)s3)c2cc1OC (stereo not shown) [Example 376, 1-[2-(5-{1-[(6,7-dimethoxy-2-methylquinazolin-4-yl)amino]ethyl}thiophen-2-yl)phenyl]-2-phenylethanol] | 18.4 µM |  |  | > 20 µM | 
CCCCC(O)c1ccccc1-c1ccc(C(C)Nc2nc(C)nc3cc(OC)c(OC)cc23)s1 (stereo not shown) [Example 377, 1-[2-(5-{1-[(6,7-dimethoxy-2-methylquinazolin-4-yl)amino]ethyl}thiophen-2-yl)phenyl]pentan-1-ol] | 9.75 µM |  |  | > 20 µM | 
C#CC(O)c1ccccc1-c1ccc(C(C)Nc2nc(C)nc3cc(OC)c(OC)cc23)s1 (stereo not shown) [Example 378, 1-[2-(5-{1-[(6,7-dimethoxy-2-methylquinazolin-4-yl)amino]ethyl}thiophen-2-yl)phenyl]prop-2-yn-1-ol] | 1.05 µM |  |  | > 20 µM | 
COc1cc2nc(C)nc(NC(C)c3ccc(-c4ccccc4C(O)C(C)C)s3)c2cc1OC (stereo not shown) [Example 379, 1-[2-(5-{1-[(6,7-dimethoxy-2-methylquinazolin-4-yl)amino]ethyl}thiophen-2-yl)phenyl]-2-methylpropan-1-ol] | 1.35 µM |  |  | > 20 µM | 
COc1cc2nc(C)nc(NC(C)c3ccc(-c4ccccc4C(O)C(F)(F)F)s3)c2cc1OC (stereo not shown) [Example 380, 1-[2-(5-{1-[(6,7-dimethoxy-2-methylquinazolin-4-yl)amino]ethyl}thiophen-2-yl)phenyl]-2,2,2-trifluoroethanol] | 1.6 µM |  |  | > 20 µM | 
COc1cc2nc(C)nc(NC(C)c3cc(C)c(-c4cnc5n4CCC5)s3)c2cc1OC (stereo not shown) [Example 381, N-{1-[5-(6,7-dihydro-5H-pyrrolo[1,2-a]imidazol-3-yl)-4-methylthiophen-2-yl]ethyl}-6,7-dimethoxy-2-methylquinazolin-4-amine] | 1.9 µM |  |  | > 20 µM | 
COc1cc2nc(C)nc(NC(C)c3ccc(-c4ccc(F)cc4CNC(=O)CO)s3)c2cc1OC (stereo not shown) [Example 382, N-[2-(5-{1-[(6,7-dimethoxy-2-methylquinazolin-4-yl)amino]ethyl}thiophen-2-yl)-5-fluorobenzyl]-2-hydroxyacetamide] | 0.931 µM |  |  | > 20 µM | 

— patent US20240083857A1, “2-Methyl-Quinazolines” (Bayer Pharma Aktiengesellschaft, priority 2017, published 2024)
